Test [1] deals with KK-Ay mice. The test is described as follows: CA or GW4064 treatment of KK-Ay mice, serum lipids. It counts as in vivo, mouse. The following applies: KK-Ay mice; for lowered circulating TG levels / total plasma cholesterol decreased: 1 week. On the procedure: (§1) Male C57BL/6J, KK-Ay, and ob/ob (C57BL/6J background) mice, 6-10 weeks of age, were obtained from Elevage Janvier (Le Genest St. Isle, France), CLEA Japan Inc. (Tokyo, Japan), and The Jackson Laboratory (Bar Harbor, Me., USA), respectively. All mice were maintained in a temperature-controlled (23° C.) facility with a 12-hour light/dark cycle and were given free access to food and water. The study protocols were approved by the institutional review boards. The body weight and food intake were measured every second day. The control and high-fat diet was obtained from UAR (Villemoisson sur Orge, France). […] The mice were fasted 4 hours before harvesting blood for subsequent lipid measurements, and tissues for RNA isolation, lipid measurements, and histology.
For measurement of liver TGs and cholesterol content, a liver was homogenized in chloroform/methanol (2:1 v/v) using a Polytron tissue grinder (Kinematica AG, Luzern, Switzerland). Lipid extracts were prepared by the classical Folch method. Extracts were dried under N2 flow and resuspended in isopropanol.

The subject of test [2] is KK-Ay mice. The test is described as follows: In vivo VLDL TG production (Tyloxapol) in KK-Ay mice. More on the design: species or system mouse. The following applies: 1 week of CA feeding, chow and high-fat diet.
A further test deals with mouse SREBP-1c promoter. Description: SREBP-1c promoter luciferase reporter assay in McA-RH7777 cells. The following applies: McA-RH7777 rat hepatoma cells, LXRα transfection and/or LXR and RXR agonists. It counts as cell-based. In general terms: A reporter such as luciferase makes a cellular process visible.
For a further test, the system named is SHP+/+ and SHP-/- mice. The test is described as follows: FXR agonists in SHP+/+ and SHP-/- mice. It is filed as in vivo, mouse. The note with it: for hepatic expression of SREBP-1c, ME, CYP7A1 and ANGPTL3: 1-day treatment. On the procedure:
as §1

The next test deals with C57BL/6J mice. The test is described as follows: Indirect calorimetry (Oxymax). It is filed as in vivo, mouse. As for the experimental part:
Male C57BL/6J and KK-Ay mice, 6-7 weeks of age, were obtained from Charles River Laboratories France (l'Arbresle, France) and CLEA Japan Inc. (Tokyo, Japan), respectively. […] All mice were maintained in a temperature-controlled (23° C.) facility with a 12 h light/dark cycle and were given free access to food and water. The control and high-fat diet was obtained from UAR (Villemoison surOrge, France). […] GW4064 was suspended in peanut oil and mixed with the high fat diet at a concentration of 180 mg per kg of food. […] The mice were fasted 4 h before harvesting blood for subsequent blood measurements, and tissues for RNA isolation, lipid measurements and histology. Oxygen consumption was measured using the Oxymax apparatus (Columbus Instruments, Columbus, Ohio).

In a further test the test system is BAT of C57BL/6J mice. Description: BAT gene expression by microarray and Q-RT-PCR. It is filed as in vivo, mouse.
A further test deals with HSMM. Description: cAMP levels in human skeletal muscle myoblasts. It counts as cell-based. The note with it: 1 mM IBMX, 30 minutes. For orientation: Changes in cAMP serve as a functional read-out for many G protein-coupled receptors.
Where [3] appears, read: CA feeding, HPLC of lipoproteins.

Method for BAT of C57BL/6J mice: For microarray analysis, RNA was isolated from BAT using the RNeasy mini kit (QIAGEN, Courtaboeuf, France). Equal amounts of RNA from mice in each group were pooled (n=3 or 4 mice) and used for cDNA synthesis. After second-strand cDNA synthesis (Life Technologies, Cergy Pontoise, France), in vitro transcription was performed with biotinylated UTP and CTP (Enzo Diagnostics, Farmingdale, N.Y.). Fragmented cRNA samples were hybridized to the Affymetrix MOE430A microarray. The raw data was analyzed using the Microarray Suite Software version 5.0 (MAS5.0, Affymetrix, Santa Clara, Calif.).
Method for HSMM: HSMM were obtained from Cambrex (Walkersville, Md.) and were cultured according to the suppliers instructions. […] For the cAMP measurements, cells were preincubated 12 h in Opti-MEM (Life Technologies, Cergy Pontoise, France), supplemented with 1 mM IBMX. Then medium was changed and cells were incubated for another 1 h in Opti-MEM with 1 mM IBMX, after which the medium was replaced for Opti-MEM with 1 mM IBMX and the indicated compounds. After 30 minutes the cells were lysed for cAMP analysis.
Nonesterified fatty acids, triglycerides, ketone bodies, BA and total cholesterol were determined by enzymatic assays (Roche, Mannheim, Germany). cAMP was measured using the cAMP-Screen system (Applied Biosystems, Bedford, Mass.).
Method for mouse SREBP-1c promoter: The LXR response elements in pSREBP-1c324-Luc were mutated for promoter analysis using the Quick Change Site-Directed Mutagenesis Kit (Stratagene, La Jolla, Calif., USA).
The rat hepatoma cell line McA-RH7777 was obtained from ATCC (Manassas, Va., USA). […] Transfections were performed in 96-well plates using Lipofectamine 2000 (Invitrogen, Cergy Pontoise, France). Each well contained 64 ng luciferase reporter and 4 ng of β-galactosidase expression plasmid. We transfected 16 ng RXRα, 16 ng LXRα, 16 ng LRH-1, 32 ng SHP expression plasmids, or the corresponding empty expression vectors. After 6 hours of incubation with the DNA-lipofectamine complexes, the transfection medium was exchanged for medium with or without the indicated ligands. Ligands for LXR and RXR were dissolved in ethanol or DMSO and added to the cells in DMEM supplemented with 10% lipoprotein-deficient serum. To suppress SREBP-1c activation by processing, leading to feed-forward induction of SREBP-1c expression, the medium used for the SREBP-1c promoter study was also supplemented with 10 μg/ml cholesterol and 1 μg/ml 25-hydroxycholesterol. Luciferase measurements were normalized to β-galactosidase activity.

Take `C[C@H](CCC(=O)O)[C@H]1CC[C@H]2[C@@H]3[C@H](O)C[C@@H]4C[C@H](O)CC[C@]4(C)[C@H]3C[C@H](O)[C@]12C` [CA, cholic acid]: in the test with KK-Ay mice [1] (setting [3]), the HDL cholesterol result is “decreasing HDL cholesterol” and the “VLDL TGs” value was “decreasing VLDL TGs”. For the same compound, in the test on KK-Ay mice [1] (CA feeding, particularly on high-fat diet), the “plasma FFAs” value is “decreased plasma FFAs”. In the test with KK-Ay mice [1] (high-fat diet with 0.5% CA), the “lowered circulating TG levels” value turned out to be 65% and the “total plasma cholesterol decreased” value is reported as 35%. Moreover, in the test on KK-Ay mice [1] (normal-chow diet with 0.5% CA), the “lowered circulating TG levels” value amounted to 51% and the “total plasma cholesterol decreased” value came to 24%. For the same compound, in the test on KK-Ay mice [2], the “liver VLDL production” value is on record as “significantly decreased”. Moreover, the “increase of SREBP-1c promoter activity” value in the test with mouse SREBP-1c promoter is “attenuated”. In addition, the “serum TGs” value with SHP+/+ and SHP-/- mice (SHP+/+ mice, 0, 3 and 7 days) was “significantly lowered”. For the same compound, the “hepatic expression of SREBP-1c, ME, CYP7A1 and ANGPTL3” value in the test with SHP+/+ and SHP-/- mice (SHP+/+ mice) is “significantly reduced”. For the same compound, in the test with SHP+/+ and SHP-/- mice (SHP-/- mice), the “decrease in serum TGs” value was “completely abolished”; the “hepatic expression of SREBP-1c, ME, CYP7A1 and ANGPTL3” value is on record as “no decrease”. For the same compound, the “CO2 production and O2 consumption” value with C57BL/6J mice (high fat diet containing CA vs high fat or normal diet) is “higher”. For the same compound, the “respiratory quotient (RQ=VCO2/VO2)” value with C57BL/6J mice (high fat diet supplemented with CA) is “not affected”. Further, the “expression of PGC-1α, PGC-1β, UCP-1, UCP-3, ACO, mCPT-I and D2 in BAT” value with BAT of C57BL/6J mice (C57BL/6J mice fed 47 days, diet mixed with CA, Q-RT-PCR) is reported as “significantly increased”. For the same compound, the “genes involved in control of energy expenditure incl. D2 in BAT (microarray)” value with BAT of C57BL/6J mice (high fat diet mixed with CA or CDCA for 9 days) is “upregulated”. Besides, in the test on HSMM, the cAMP levels result is given as “increased cAMP levels in a dose-dependant fashion”.

The values are drawn from patent US20080031968A1, “Methods for increasing cellular energy expenditure” (priority 2005, published 2008).
